{"source": "patent US20240018125A1", "about": "“CYCLIC ISOTHIOUREA DERIVATIVES AS CXCR4 MODULATORS” (ERMIUM THERAPEUTICS, priority 2020, published 2024)", "key": {"[1]": {"tested_on": "129S8 mice infected with influenza A virus H3 N2 (X31)", "test": "In vivo immunomodulating effect (type 1 IFNs in BALF) in acute influenza inflammation model", "design": "species or system mouse", "conditions": "[…]; even lower than after ibuprofen"}, "[2]": {"biological_target": "T1, human CXCR4 (hCXCR4) receptor (Homo sapiens, UniProt P61073)", "T1 construct": "expressed in transfected cells; host or cells: HEK-293 T cells, transient co-transfection with polyethylenimine", "T1 sequence (P61073 whole entry)": "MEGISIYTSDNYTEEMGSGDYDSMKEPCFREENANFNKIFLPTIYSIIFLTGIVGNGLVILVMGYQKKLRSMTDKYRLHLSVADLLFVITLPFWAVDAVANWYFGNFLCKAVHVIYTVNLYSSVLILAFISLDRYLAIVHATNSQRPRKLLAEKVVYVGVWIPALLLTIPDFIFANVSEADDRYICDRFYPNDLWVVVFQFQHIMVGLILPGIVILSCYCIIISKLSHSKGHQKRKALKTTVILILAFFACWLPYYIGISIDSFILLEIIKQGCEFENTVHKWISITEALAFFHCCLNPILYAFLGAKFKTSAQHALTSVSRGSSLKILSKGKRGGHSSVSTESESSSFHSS", "test": "BRET assay of antagonist activity on the CXCR4-CXCL12 signaling pathway (Gαi2 recruitment) in HEK-293 T cells", "type": "cell-based", "conditions": "HEK-293 T cells with hCXCR4, Gαi2 and BRET biosensors; 10 min with compound, then EC80 CXCL12", "experimental": "Examples of the present invention were tested for their antagonist activity on human CXCR4 (hCXCR4) receptor transiently over-expressed in HEK-293 T cells. Compounds exert antagonist activity if they decrease the action of CXCL12 on the receptor.\nThe specific effector (luciferase tagged: BRET donor) recruited at the membrane will be in close proximity to a plasma membrane anchor (GFP tagged: BRET acceptor) to induce a BRET signal (Hamdan et a1, 2006, Chapter 5, Current Protocols in Neuroscience).\nHEK-293 T cells are maintained in Dulbecco's Modified Eagle's Medium supplemented with 10% Foetal Calf Serum, 1% Penicillin/Streptomycin at 37° C./5% CO2. Cells are co-transfected using polyethylenimine (25 kDa linear) with several DNA plasmids encoding: hCXCR4; Gai2; an intracellular effector fused to luciferase (BRET donor); a plasma membrane effector fused to GFP (BRET acceptor). After transfection, cells are cultured for 48 h at 37° C./5% CO2. On the day of the assay, cells are detached using trypsin 0.05%, resuspended in assay buffer (1.8 mM CaCl2, 1 mM MgCl2, 2.7 mM KCl, 137 mM NaCl, 0.4 mM NaH2PO4, 5.5 mM D-Glucose, 11.9 mM NaHCO3, 25 mM Hepes) and seeded in 384 well plate at a density of 20,000 cells per well. Then, plates are equilibrated 3.5 h at 37° C. before adding compounds. Compounds and luciferase substrate are added to the cells using an automated device (Freedom Evo®, Tecan) and BRET readings are collected on EnVision (PerkinElmer) with specific filters (410 nm BW 80 nm, 515 nm BW 30 nm).\nCells are first incubated for 10 minutes with the compound alone. Then, cells are stimulated by an EC80 CXCL12 concentration for additional 10 minutes and luminescence is recorded. EC80 CXCL12 concentration is the concentration giving 80% of the maximal CXCL12 response. Antagonist activity is evaluated in comparison to basal signals evoked by EC80 CXCL12 alone.\nFor IC50 determination, a dose-response test is performed using 20 concentrations (ranging over 6 logs) of each compound. Dose-response curves are fitted using the sigmoidal dose-response (variable slope) analysis in GraphPad Prism software (GraphPad Software) and IC50 of antagonist activity is calculated. Dose-response experiments are performed in duplicate, in two independent experiments.\nHEK-293 T cells were transfected to allow measuring the recruitment of Gai2 proteins involved in intracellular signaling by human CXCR4 receptor (hCXCR4) via the BRET technology. Cells were then incubated with various concentrations of examples of the invention before stimulation with an EC80 concentration of CXCL12."}, "[3]": {"tested_on": "Female Balb/c mice, pristane-induced lupus", "test": "In vivo pristane-induced lupus mouse model, anti-dsDNA antibody titers in serum by ELISA", "experimental": "Female Balb/c mice (6 to 8 weeks, ENVIGO, Indianapolis, USA) received a single i.p. injection with 0.5 mL of pristane (Sigma-Aldrich, St Louis, USA) to induce a lupus-like disease. That same day, once daily treatment was started (10 mL/kg), either with vehicle control (PBS) i.p., with prednisolone (Sigma-Aldrich, St Louis, USA) in PBS p.o. at a dose of 15 mg/kg (positive control), or with an exemplary compound of formula (I), i.e. Example 60, at a dose of either 3 mg/kg, 10 mg/kg or 30 mg/kg in PBS i.p. After 4, 6 and 8 weeks of dosing, sample bleeds for each mouse were collected via the orbital sinus, and immediately cold processed to sera and stored (50 μl) at −80° C. until analysis. In serum, anti-dsDNA antibody titers are determined using ELISA. Optical density was measured at 450 nm (OD450) using a microplate reader. Data are reported as anti-dsDNA Ab titers (OD), mean±S.E.M. as well as the statistical significance versus pristane-induced vehicle treated group using t-tests."}}, "note": "Counter-ions that a name gives are not always drawn.", "data": [{"smiles": "Clc1ccc2c(c1)CN=C(SCCCCN1CCCC1)N2", "note": "[Example 60, 6-chloro-2-((4-(pyrrolidin-1-yl)butyl)thio)-1,4-dihydroquinazoline dihydrochloride]", "values": [{"measurement": "concentration of IFNα in BALF vs vehicle-treated infected mice", "setting": "[1]", "result": "significantly decreased"}, {"measurement": "concentration of IFNβ in BALF vs vehicle-treated infected mice", "setting": "[1]", "result": "significantly decreased"}, {"measurement": "concentration of IFNλ2/3 in BALF vs vehicle-treated infected mice", "setting": "[1]", "result": "significantly decreased"}, {"measurement": "IC50", "setting": "[2]", "result": "≥ 15", "unit": "µM"}, {"measurement": "anti-dsDNA Ab titers in serum vs vehicle-treated pristane-induced mice", "setting": "[3]; 3 mg/kg i.p. once daily, week 4", "result": "reduced"}, {"measurement": "anti-dsDNA Ab titers in serum vs vehicle-treated pristane-induced mice", "setting": "[3]; 10 mg/kg i.p. once daily, week 4", "result": "reduced"}, {"measurement": "anti-dsDNA Ab titers in serum vs vehicle-treated pristane-induced mice", "setting": "[3]; 10 mg/kg i.p. once daily, week 8, same range as prednisolone", "result": "significantly decreased"}, {"measurement": "anti-dsDNA Ab titers in serum vs vehicle-treated pristane-induced mice", "setting": "[3]; 30 mg/kg i.p. once daily, week 4", "result": "reduced"}, {"measurement": "anti-dsDNA Ab titers in serum vs vehicle-treated pristane-induced mice", "setting": "[3]; 30 mg/kg i.p. once daily, week 6", "result": "significantly lower"}, {"measurement": "anti-dsDNA Ab titers in serum vs vehicle-treated pristane-induced mice", "setting": "[3]; 30 mg/kg i.p. once daily, week 8, same range as prednisolone", "result": "significantly decreased"}]}]}
